This series in a line: physchem.

What is called logP is the decadic logarithm of the partition coefficient of the neutral form, usually between octanol and water. Lower therefore signals a more hydrophilic compound. In turn, `CC1COC(=O)O1` (stereo not shown) [propylene carbonate] had a lipophilicity (logP) of -0.41.

The record behind these values is patent publication US10959925B2, “Hair cosmetic composition” (KAO CORPORATION, priority 2016, dated 2021).
